Each structure is given as a SMILES string. ≈ marks a conversion by molar mass, not a printed value. Structures can show the parent of a compound that is named as a salt. Where a SMILES comes first, the peptide text is derived from it. [ ]: non-standard residue; d: D form. The star is where a group is joined. pGlu = O=C1CC[C@@H](C(=O)O)N1; Octanoyl = CCCCCCCC(=O)*

A short description of one data set: physchem. Particulars: water.
The test system of data set [1] is oxazolone-induced atopic dermatitis (AD) mouse models. Put plainly: Oxazolone-induced atopic dermatitis mouse model, clinical lesions. The class given is in vivo. The method, then: The effect of topical administration of ZEP3 (SEQ ID NO: 1), and its sodium salt form (ZEP3Na), and ZEP4 (SEQ ID NO: 2) was evaluated in oxazolone-induced atopic dermatitis (AD) mouse models. This model is widely used and well described in literature (Avci et al. 2013 Expert Opin Drug Discov. 8, 331-355; Petersen T. K. 2006, Basic Clin. Pharmacol. Toxicol. 99, 104-115) as an accepted animal model for evaluating drugs for AD therapy in humans.

The subject of the next data set is TNF alpha. Briefly: TNF alpha secretion in LPS treated human keratinocytes (ELISA). Particulars: for TNFα: ZEP3Na without DMSO; for Fold Change: refers to TNF-α concentration in sample #2; for % Inhibition: vs corresponding control group without peptide. Format: cell-based. The protocol:
Methods: SCCE020 cells (EpiGRO™ Human Epidermal Keratinocytes) were grown in complete growth medium (EpiGRO™ Human Keratinocytes Complete Medium; Millipore Cat. #SCMK001) for 4 passages. At passage 5, cells were seeded (3*10^5 cells/well) in triplicates in a volume of 1 ml complete growth medium per well. Additional 3 control wells contained only medium without cells. Upon adherence, cell medium was replaced by basal medium containing L-Glutamine without supplements (starvation medium) and cells were starved overnight. The next day, 24 hours after seeding, the cells were treated with ZEP3 or ZEP3Na or appropriate diluent (PBS or DMSO). After 4 hours of incubation, LPS (from E. Coli 055: B5; Sigma Cat. #L6529-1MG) was added to the wells in final concentration of 20 or 30 μg/ml.
Cells were incubated for 24 hours in tissue culture incubator. After collecting cell supernatants from all wells, cells from treatment groups: 1, 2, 3, 8, 9, 10, 13, 14 (without DMSO groups) were pelleted and stored at −80° C. for further analyses. The cells were collected from as following: upon supernatants collection, the wells were rinsed with trypsin, then incubated with trypsin until they detached from the plate surface, centrifuged, washed with PBS and stored as a cell pellet. TNF-α concentration in the supernatants was measured by ELISA (Quantikine HS ELISA; R&D Systems Cat. #HSTA00D), in 5 replicates.
TNF alpha concentration in the samples was calculated according to the standard curve trend line equation: =0.063x+0.1718. Percent inhibition of TNF alpha production was calculated in each treatment group in comparison to the corresponding control group (same conditions, without peptide).
In general terms: An ELISA detects its analyte on a solid surface through an enzyme-linked reagent.

Data set [2] in a line: Oxazolone-induced atopic dermatitis mouse model, tolerability and bodyweights.
Method: Method: Animals were sensitized by topical administration of oxazolone 2% in ethanol on the back at Day 0 after shaving and depilation of the animals (sensitization phase). Then a challenge was performed one week later by topical administration of oxazolone 1% in ethanol on the back and on right ear every 2 days at 10 occasions namely for total 3 weeks. The tested compounds were applied during the challenge phase every 2 days via the topical route as ready to use cream formulations. The surface of application was the same as for challenge (back+ear). 100 μL were deposited on the back and the back was smoothly massaged. Then, remaining formulation on finger glove was deposited on the internal face of the ear. Every other day, back skin and ears thickness were measured using caliper; and the following clinical scores were recorded from back skin: erythema and scaling. Animals were also weighed every other day (approximate bodyweights of a mouse at startup is about 20 g).
The formulations used for topical administration of the tested compound were: ZEP3 1% cream having pH 7.1 and comprising: Propylene glycol, Polysorbate 80, Edetate Disodium, Silicon dioxide (syloid), Methylparaben, White petrolatum, Isopropyl Myristate, Cetyl Alcohol and Glyceryl Monostearate. ZEP3Na 1% cream having pH 8.0 and comprising: Propylene glycol, Polysorbate 80, Edetate Disodium, Silicon dioxide (syloid), Methylparaben, White petrolatum, Isopropyl Myristate, Cetyl Alcohol and Glyceryl Monostearate. ZEP4 1% cream having pH 4.5 and comprising: Propylene glycol, Glycerin, Polysorbate 80, EDTA Disodium, Xanthan Gum, Silicon dioxide (syloid), Methylparaben, White petrolatum, Isopropyl Myristate, Cetyl Alcohol, Stearyl Alcohol, and Glyceryl Monostearate (kolliwax).
The subject of a further data set is CMC type arthritis. Briefly: Treatment of CMC arthritis of the big toe in a subject. Format: in vivo, human. As to conditions: 0.5% cream applied on the swollen area 5 times a day. An excerpt: Their toe was swollen, red, and so painful that it prevented them from walking. ZEP3 sodium salt at 0.5% cream was applied on the swollen area 5 times a day.
Setting [3] is: peptide 0.02 mg/ml, LPS 20 μg/ml.
Setting [4] is: peptide 0.2 mg/ml, LPS 20 μg/ml.
Where [5] appears, read: peptide 0.2 mg/ml, LPS 30 μg/ml.
Setting [6] is: peptide 0.4 mg/ml, LPS 20 μg/ml.

Usually solubility stands for the concentration that dissolves in the medium under given conditions. The low end stands for a poorly soluble substance, the high end for a readily soluble substance. Usually % Inhibition stands for the share of the control response that was lost under treatment. For `CCCCCCCC(=O)NCCCC[C@H](NC(=O)[C@H](Cc1c[nH]c2ccccc12)NC(=O)[C@H](CC(N)=O)NC(=O)[C@@H]1CCC(=O)N1)C(=O)O` [ZEP3Na, pGlu-Asn-Trp-Lys(Octanoyl)-OH.nNa] ([pGlu]NWK(Octanoyl)-OH), the concentration in solution in “physchem” (solubility) was 50 mg/mL (≈ 73.1 mM). In addition, the “Scaling: period of reduction” value in data set [1] (1% cream topical, 50 mg/kg, scaling score of back skin) is recorded as “from days 14 to 24”. In data set [1] (days 18, 20 and 22), the “Right ear thickness, significant difference in comparison to control” value is on record as −18.4 to −22.7%. For the same compound, in data set [1] (vs control group), the “Erythema scoring: days with a significant difference” value is “day 24”. The “total score: days with significant difference” value in data set [1] (vs control group) was “days 14, 18, 20 and 22”. Moreover, the “TNF alpha levels / production in LPS treated human keratinocytes (in words)” value in the data set with TNF alpha (compared with cells stimulated with LPS alone) is reported as “dose dependent inhibition”. In addition, the TNFα with TNF alpha (peptide 0.02 mg/ml, LPS 20 μg/ml, ZEP3 in 0.025% DMSO) is 9.2 pg/mL; with TNF alpha (peptide 0.2 mg/ml, LPS 20 μg/ml, ZEP3 in 0.05% DMSO) it was 6.7 pg/mL; with TNF alpha (peptide 0.2 mg/ml, LPS 30 μg/ml, ZEP3 in 0.10% DMSO) it was 13.1 pg/mL; in the data set with TNF alpha (peptide 0.4 mg/ml, LPS 20 μg/ml, ZEP3 in 0.10% DMSO) it was 5.9 pg/mL. Also, the “Fold Change” value is recorded as 3.3 in the data set with TNF alpha (setting [3]), 2.4 with TNF alpha (setting [4]), 4.7 in the data set on TNF alpha (setting [5]) and 2.1 in the data set with TNF alpha (setting [6]). The “% Inhibition” value is listed as 26% with TNF alpha (setting [3]), 46% in the data set with TNF alpha (setting [4]), 38% with TNF alpha (setting [5]) and 52% in the data set with TNF alpha (setting [6]). In data set [2] (50 mg/kg topical to atopic dermatitis induced mice), the tolerability entry is listed as “well tolerated”. Moreover, the “Bodyweights in comparison to the excipient” value in data set [2] (day 8 to day 28) was “behaved normally”. Further, the “time to relief reported by the subject” value in the data set on CMC type arthritis is “within one day”. The “time to resolution of the condition” value in the data set with CMC type arthritis is 3 to 4 days.

Turning to `C[C@H]1C[C@H]2[C@@H]3CCC4=CC(=O)C=C[C@]4(C)[C@@]3(F)[C@@H](O)C[C@]2(C)[C@@]1(O)C(=O)CO` [Betamethasone, reference compound], the “Back skin thickness decrease” value in data set [1] (day 28, topical, 2.5 mg/kg) amounted to 40%. Also, the bodyweight loss in data set [2] (topical, 2.5 mg/kg) was 8-10%.

As to `C[C@@H](O)[C@H](NC(=O)[C@H](Cc1c[nH]c2ccccc12)NC(=O)[C@H](CC(N)=O)NC(=O)[C@@H]1CCC(=O)N1)C(=O)O` [ZEP4 sodium salt, pGlu-Asn-Trp-Thr-OH.nNa] (HELM PEPTIDE1{[Glp].N.W.T}$$$$V2.0), in the data set “physchem”, the solubility stood at 50 mg/mL.

(Values after US11419913B2, “Pharmaceutical compositions for inhibiting inflammatory cytokines” (S.I.S. SHULOV INNOVATIVE SCIENCE LTD., priority 2018, dated 2022).)
